# Measurements as given in PMC12345137 (mBio, 2025).
# Entries after “also recorded” stand apart in the source; their conditions may differ. Where two headings read alike, the source gives them in different places. Positions of bridges follow the written chain, without caps; N, C: chain ends. Residues, ends and D or L forms follow the SMILES beside them.
# Tests used:
# S. epidermidis agr-II = S. epidermidis agr-II (Staphylococcus epidermidis, UniProt Q8VSX5); experiment: cell-based; assay type: cell-based; conditions: for QS interaction in words (inhibition / activation), S. epidermidis agr-II: fluorescent reporter strain, peptides tested at 1000, 50, 2.5, 0.125 nM or in dose-response
# In short: (§1)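 37°C, 1,000 rpm, 22–24 h in TSB + CAM or ERM (10 μg/mL); 1:5 serial peptide dilutions from 1 mM DMSO stocks; fluorescence (GFP ex 479/em 520, YFP ex 500/em 541) minus blank, ÷OD600, % of untreated control; IC50 by variable-slope fit.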
# S. epidermidis agr-III = S. epidermidis agr-III (Staphylococcus epidermidis, UniProt Q8VSX2); experiment: cell-based; assay type: cell-based; conditions: for QS interaction in words (inhibition / activation), S. epidermidis agr-III: fluorescent reporter strain, peptides tested at 1000, 50, 2.5, 0.125 nM or in dose-response
# In short: as §1
# S. aureus (SA) agr-III = conditions: fluorescence, cited from earlier work
# SA AgrC-I = SA AgrC-I (Staphylococcus aureus, UniProt O07911)
# S. aureus agr-IV = S. aureus agr-IV (Staphylococcus aureus, UniProt Q309Z2); experiment: cell-based; assay type: cell-based
# In short: as §1
# Sequence of S. epidermidis agr-II (Q8VSX5 entry or part of it): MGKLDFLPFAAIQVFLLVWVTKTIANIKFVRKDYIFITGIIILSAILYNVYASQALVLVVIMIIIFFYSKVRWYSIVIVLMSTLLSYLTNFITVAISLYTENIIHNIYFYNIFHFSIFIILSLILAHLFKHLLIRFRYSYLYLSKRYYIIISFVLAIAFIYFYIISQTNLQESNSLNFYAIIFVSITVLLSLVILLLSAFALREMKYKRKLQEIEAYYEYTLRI
# Sequence of S. epidermidis agr-III (Q8VSX2 entry or part of it): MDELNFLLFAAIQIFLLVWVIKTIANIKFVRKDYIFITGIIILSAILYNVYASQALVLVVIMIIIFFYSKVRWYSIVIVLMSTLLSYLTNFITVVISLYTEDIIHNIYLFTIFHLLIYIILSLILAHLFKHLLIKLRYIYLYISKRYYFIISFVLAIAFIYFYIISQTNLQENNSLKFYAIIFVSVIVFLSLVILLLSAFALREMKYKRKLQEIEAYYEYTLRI
# Sequence of S. aureus agr-IV (Q309Z2 entry or part of it): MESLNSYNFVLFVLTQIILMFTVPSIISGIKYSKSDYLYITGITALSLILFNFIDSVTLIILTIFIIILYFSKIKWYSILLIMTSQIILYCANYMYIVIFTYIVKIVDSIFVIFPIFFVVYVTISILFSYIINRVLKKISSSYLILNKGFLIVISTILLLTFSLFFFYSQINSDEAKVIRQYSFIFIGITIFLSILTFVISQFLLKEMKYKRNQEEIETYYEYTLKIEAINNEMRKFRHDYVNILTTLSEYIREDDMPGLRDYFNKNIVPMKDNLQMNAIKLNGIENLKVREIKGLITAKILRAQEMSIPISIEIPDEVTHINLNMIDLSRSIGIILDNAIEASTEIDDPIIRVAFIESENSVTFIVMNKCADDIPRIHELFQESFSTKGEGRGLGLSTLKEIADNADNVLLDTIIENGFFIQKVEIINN
# Sequence of SA AgrC-I (O07911 entry or part of it): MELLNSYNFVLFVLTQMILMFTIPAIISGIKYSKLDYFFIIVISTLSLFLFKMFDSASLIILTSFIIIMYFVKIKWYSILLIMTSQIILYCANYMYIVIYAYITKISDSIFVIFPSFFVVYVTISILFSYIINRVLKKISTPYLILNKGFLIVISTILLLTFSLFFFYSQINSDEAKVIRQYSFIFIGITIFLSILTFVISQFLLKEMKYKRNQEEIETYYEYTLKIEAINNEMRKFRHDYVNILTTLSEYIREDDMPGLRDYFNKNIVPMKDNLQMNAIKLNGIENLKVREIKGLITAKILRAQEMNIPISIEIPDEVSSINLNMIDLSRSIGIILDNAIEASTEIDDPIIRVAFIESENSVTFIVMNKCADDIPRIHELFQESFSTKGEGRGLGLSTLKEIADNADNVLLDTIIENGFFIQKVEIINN
Compound,IC50 (S. epidermidis agr-II),IC50 (S. epidermidis agr-III),IC50 (S. aureus (SA) agr-III; ref (5)),"EC50 (SA AgrC-I; ± SEM; determined previously; ref (1); read-out: EC50, SA AgrC-I, b-lactamase assay; cited from earlier work)",IC50 (S. aureus agr-IV),"QS interaction in words (inhibition / activation), S. epidermidis agr-III (S. epidermidis agr-III)","QS interaction in words (inhibition / activation), S. epidermidis agr-III (S. epidermidis agr-III; listed as S. simulans AIP-I)",IC50 (S. aureus (SA) agr-III; ref (17)),"IC50 (SA AgrC-I; read-out: IC50, SA AgrC-I, b-lactamase assay; 100 nM cognate AIP; ± SEM; -b = no inhibition recorded at the highest AIP concentration tested; determined previously; ref (1); cited from earlier work)","QS interaction in words (inhibition / activation), S. epidermidis agr-II (S. epidermidis agr-II)","QS interaction in words (inhibition / activation), S. aureus agr-IV (S. aureus agr-IV; fluorescent reporter strain, peptides tested at 1000, 50, 2.5, 0.125 nM or in dose-response)","QS interaction in words (inhibition / activation), S. epidermidis agr-III (S. epidermidis agr-III; listed as S. simulans AIP-III)","QS inhibition at […], S. aureus agr-IV (S. aureus agr-IV; […] peptide, fluorescent reporter strain)","IC50 (SA AgrC-I; 100 nM cognate AIP; ± SEM; -b = no inhibition recorded at the highest AIP concentration tested; determined previously; ref (1); read-out: IC50, SA AgrC-I, b-lactamase assay; cited from earlier work)"
"CC[C@H](C)[C@@H]1NC(=O)[C@H](Cc2ccccc2)NC(=O)[C@H](CC(=O)O)NC(=O)[C@@H](NC(=O)[C@@H](NC(=O)[C@H](CO)NC(=O)[C@@H](N)Cc2ccc(O)cc2)[C@@H](C)O)CSC(=O)[C@H](CCSC)NC1=O [compound 1, S. aureus AIP-I] (H-YSTCDFIM; thioester 4-C)",> 1000 nM,> 1000 nM,0.53 nM,5.4 ± 0.5 nM,–,–,–,–,–,–,–,–,–,–
"CC(C)C[C@@H]1NC(=O)[C@@H](NC(=O)[C@@H]2CCCN2C(=O)[C@H](CC(N)=O)NC(=O)[C@H](Cc2ccc(O)cc2)NC(=O)[C@@H](N)CCCCN)CSC(=O)[C@H](CC(C)C)NC(=O)[C@H](Cc2ccccc2)NC(=O)CNC1=O [compound 32, S. simulans AIP-I] (H-KYNPCLGFL; thioester 5-C; N-terminus assumed)",0.26 ± 0.01 nM,–,–,–,10 nM,activated; also recorded: activators,activation,3.5 nM,8.6 ± 0.5 nM,–,–,–,–,–
"NCCCC[C@H](N)C(=O)N[C@@H](Cc1ccc(O)cc1)C(=O)N[C@@H](Cc1ccc(O)cc1)C(=O)N1CCC[C@H]1C(=O)N[C@H]1CSC(=O)[C@H](Cc2ccccc2)NC(=O)[C@H](Cc2ccc(O)cc2)NC(=O)CNC(=O)[C@H](Cc2c[nH]c3ccccc23)NC1=O [compound 33, S. simulans AIP-II] (H-KYYPCWGYF; thioester 5-C)",0.26 ± 0.08 nM,0.6 ± 0.2 nM,–,–,31 ± 7 nM,inhibited; also recorded: sub-nanomolar inhibition,–,11.5 nM,–,inhibited,inhibited,–,–,–
"NCCCC[C@H](N)C(=O)N[C@@H](Cc1ccc(O)cc1)C(=O)N[C@@H](CC(N)=O)C(=O)N1CCC[C@H]1C(=O)N[C@H]1CSC(=O)[C@H](Cc2ccccc2)NC(=O)[C@H](Cc2ccc(O)cc2)NC(=O)CNC(=O)[C@H](Cc2c[nH]c3ccccc23)NC1=O [compound 34, S. simulans AIP-III] (H-KYNPCWGYF; thioester 5-C)",0.11 ± 0.02 nM,–,–,–,34 nM,activated; also recorded: activators,–,3.2 nM,–,–,–,activator,–,–
"S. aureus AIP-III D4A [compound 57, reference compound]",–,–,0.051 nM,–,–,weak interference,–,–,–,weak interference,–,–,> 95%,3.3 ± 0.7 nM
